What was measured:
[1] = tested on: ABCA1, ABCG1, SREBP-1c, apoE, LXRα, Cyp26 mRNA; assay: Quantitative real-time PCR of LXR target genes and Cyp26 in mouse peritoneal macrophages; type: cell-based
Method: Total RNA was isolated from mouse peritoneal macrophages or ˜50 mg of mouse liver tissue by using the RNeasy Mini kit (Qiagen, Valencia, Calif.) or RNA-Bee reagent (Tel-Test, Inc., Friendswood, Tex.), respectively, according to the manufacturer's protocol. Real-time quantitative PCR assays were performed by using the Mx4000 Quantitative PCR System (Stratagene, La Jolla, Calif.). Briefly, 5 μg of total RNA was treated with RNase-free DNase I (Ambion, Austin, Tex.), and first-strand cDNA was synthesized with oligo(dT)12-18 by using a Superscript II RNase H^− reverse transcriptase reagent kit (Invitrogen) according to the manufacturer's protocol. For quantification of mouse ABCA1, ABCG1, SREBP-1c, LXRα, ApoE, and fatty acid synthase (FAS) mRNA levels, each amplification mixture contained 62.5 ng of cDNA, appropriate concentrations of forward and reverse primers and of dual-labeled fluorogenic probe (Biosearch Technologies, Novato, Calif.), and 12.5 μl of TaqMan Universal PCR master mix (Applied Biosystems, Foster City, Calif.). PCR thermocycling parameters were 50° C. for 2 min, 95° C. for 10 min, and 45 cycles of 95° C. for 15 s and 60° C. for 1 min. All samples were analyzed for β-actin expression in the same run. Quantitative expression values were extrapolated from standard curves for the gene of interest with 10-fold dilutions of cDNA (in triplicate). Each sample was normalized to β-actin, triplicates were averaged, and relative mRNA levels were determined. The following mouse primers and probes were used: mouse ABCA1 (mABCA1) forward (F) (5′-[…]-3′), mABCA1 reverse (R) (5′-[…]-3′), and mABCA1 TaqMan probe (5′-FAM-[…]-BHQ-3′); mABCG1 F (5′-[…]-3′), mABCG1 R (5′-[…]-3′), and mABCG1 TaqMan probe (5′-FAM-[…]-BHQ-3′); mSREBP-1c F (5′-[…]-3′), mSREBP-1c R (5′-[…]-3′), and mSREBP-1c TaqMan probe (5′-FAM-[…]-BHQ-3′); mApoE F (5′-[…]-3′), mApoE R (5′-[…]-3′), and mApoE TaqMan probe (5′-FAM-[…]-BHQ-3′); mLXRα F (5′-[…]-3′), mLXRα R (5′-[…]-3′), and mLXRα TaqMan probe (5′-FAM-[…]-BHQ-3′); mFAS F (5′-[…]-3′), mFAS R (5′-[…]-3′), and mFAS TaqMan probe (5′-FAM-[…]-BHQ-3′); and mβ-actin F (5′-[…]-3′), mβ-actin R (5′-[…]-3′), and mβ-actin TaqMan probe (5′-JOE-[…]-BHQ-3′).
(§1) For quantification of mouse Cyp26 mRNA levels, each amplification mixture (25 μ) contained 62.5 ng of cDNA, 100 nM concentrations of reverse and forward primers, and 2.5 μl of 10× SYBR Green PCR master mix (Perkin-Elmer Life Sciences, Boston, Mass.). Quantitative expression values were extrapolated from standard curves for Cyp26 expression with 10-fold dilutions of cDNA (in triplicate). Each sample was normalized to β-actin that was deduced from TaqMan assays, triplicate results were averaged, and relative Cyp26 mRNA levels were determined. The primers mCyp26 F (5′-[…]-3′) and mCyp26 R (5′-[…]-3′) were used. RNA measurements from human monocyte-derived macrophages were performed as described previously (10, 44).

[2] = tested on: ABCA1, ABCG1, SREBP-1c, apoE, LXRα, Cyp26 mRNA; assay: Quantitative real-time PCR of LXR target genes and Cyp26 in human monocyte-derived macrophages; type: cell-based; conditions: human macrophages
Method: as §1

[3] = tested on: SREBP-1c, FAS, ABCA1, Cyp26 mRNA in liver; assay: Gene expression in mouse liver after intraperitoneal injection; type: in vivo; conditions: mice, intraperitoneal 1 or 10 mg/kg, 24 h
Method: (A) RAR regulation of ABCA1 and SREBP-1c expression in mouse peritoneal macrophages. […] ABCA1 and SREBP-1c mRNA levels were determined by quantitative real-time reverse transcription-PCR and standardized against β-actin mRNA levels. The results are expressed as mean±the SEM (n=4 and 6). *, P<0.05; **, P<0.01 (compared to control). […] After 24 h, the mice were anesthetized, the livers were perfused, and the square lobes were removed for isolation of RNA. […] The results are expressed as mean±the SEM (n=5).
Total RNA was isolated from mouse peritoneal macrophages or ˜50 mg of mouse liver tissue by using the RNeasy Mini kit (Qiagen, Valencia, Calif.) or RNA-Bee reagent (Tel-Test, Inc., Friendswood, Tex.), respectively, according to the manufacturer's protocol. Real-time quantitative PCR assays were performed by using the Mx4000 Quantitative PCR System (Stratagene, La Jolla, Calif.). Briefly, 5 μg of total RNA was treated with RNase-free DNase I (Ambion, Austin, Tex.), and first-strand cDNA was synthesized with oligo(dT)12-18 by using a Superscript II RNase H^− reverse transcriptase reagent kit (Invitrogen) according to the manufacturer's protocol. For quantification of mouse ABCA1, ABCG1, SREBP-1c, LXRα, ApoE, and fatty acid synthase (FAS) mRNA levels, each amplification mixture contained 62.5 ng of cDNA, appropriate concentrations of forward and reverse primers and of dual-labeled fluorogenic probe (Biosearch Technologies, Novato, Calif.), and 12.5 μl of TaqMan Universal PCR master mix (Applied Biosystems, Foster City, Calif.). PCR thermocycling parameters were 50° C. for 2 min, 95° C. for 10 min, and 45 cycles of 95° C. for 15 s and 60° C. for 1 min. All samples were analyzed for β-actin expression in the same run. Quantitative expression values were extrapolated from standard curves for the gene of interest with 10-fold dilutions of cDNA (in triplicate). Each sample was normalized to β-actin, triplicates were averaged, and relative mRNA levels were determined. […]
For quantification of mouse Cyp26 mRNA levels, each amplification mixture (25 μ) contained 62.5 ng of cDNA, 100 nM concentrations of reverse and forward primers, and 2.5 μl of 10× SYBR Green PCR master mix (Perkin-Elmer Life Sciences, Boston, Mass.). Quantitative expression values were extrapolated from standard curves for Cyp26 expression with 10-fold dilutions of cDNA (in triplicate). Each sample was normalized to β-actin that was deduced from TaqMan assays, triplicate results were averaged, and relative Cyp26 mRNA levels were determined. […]

[4] = tested on: ABCA1 protein; assay: Western blot of ABCA1 protein in RARγ−/− mouse peritoneal macrophages; type: cell-based; conditions: 5 μM, 24 h
Method: Protein extracts from macrophages were prepared by lysing the cells in modified radioimmunoprecipitation assay buffer (50 mM Tris, 150 mM NaCl, 1 mM EDTA. 1% Triton X-100) containing a protease inhibitor cocktail (Complete EDTA Free; Roche). Protein content in the extracts was determined by using the DC protein assay (Bio-Rad, Hercules, Calif.). Equal amounts of protein (40 to 50 μg) were separated by electrophoresis with 4 to 15% acrylamide gradient gels (Bio-Rad) and then transferred to nitrocellulose membrane (Trans-Blot Transfer Medium; Bio-Rad). Membranes were probed with anti-ABCA1 antibody (Novus Biologicals, Littleton, Colo.) and anti-β-actin antibody (Sigma) according to the manufacturer's recommendations. Immunoblots were developed by using a chemiluminescent detection system (Super Signal West Pico chemiluminescent substrate; Pierce, Rockford, Ill.).

[5] = tested on: RARα protein; assay: Western blot of nuclear RARα in RARγ-deficient macrophages; type: cell-based, mouse; conditions: TTNPB treatment
Method: Nuclear protein extracts from tissues and macrophages were isolated according to the following method. Tissue samples and cells were first homogenized on ice and then lysed in lysis buffer (10 mM Tris [pH 7.5], 3 mM MgCl2, 10 mM NaCl, 0.5% NP-40) containing protease inhibitor cocktail. The nucleus was then pelleted by centrifugation for 10 min at 6,000× g, immediately resuspended in a nucleus suspension buffer (250 mM Tris [pH 8.0], 60 mM KCl, I mM dithiothrietol), and then rotated for 1 h. After centrifugation for 5 min at 6000× g, the solubilized nuclear proteins were separated by electrophoresis with a 4 to 15% gradient gel (Bio-Rad), transferred to nitrocellulose membrane (Trans-Blot transfer medium; Bio-Rad), and probed with anti-RARγ and anti-RARα antibodies (Santa Cruz Biotechnology, Santa Cruz, Calif.) and their respective horseradish peroxidase-conjugated secondary antibodies according to the manufacturer's recommendations. The intensities of the bands were quantified by using ImageQuant and normalized to (β-actin.

[6] = mouse peritoneal macrophages, TTNPB 1 μM, 24 h

## C/C(=C\c1ccc(C(=O)O)cc1)c1ccc2c(c1)C(C)(C)CCC2(C)C [TTNPB, 4-[E-2-5,6.7.8-tetrahydro-5,5,8,8-tetramethyl-2-naphthalenyl-l-propenyl]benzoic acid]
[1]; [6]
  ABCA1 mRNA: induction of macrophage ABCA1 mRNA
  SREBP-1c mRNA: no effect
[1]; murine macrophages
  Cyp26 mRNA increase: 30 fold
[2]
  Cyp26 mRNA increase: ~6 fold
  induction of ABCA1 or other LXR target genes, compared with ATRA: much less effective than ATRA
[3]
  Cyp26 mRNA in liver: markedly induced
  FAS gene expression in liver: no response
  hepatic ABCA1 mRNA: not induced
  hepatic SREBP-1c mRNA: repressed
[4]
  ABCA1 protein induction: still induced
[5]
  decrease of nuclear RARα: ~2 fold

Reference: patent US20060009520A1, “Retinoid-based methods for altering macrophage cholesterol” (priority 2004, published 2006)
